Measurements as given in patent publication US20140271723A1 (priority 2013, published 2014).

Test system: pseudorabies virus (PRV)
Parameters: species or system pigs
Conditions: pig, in vivo

| Sequence | protection from mortality caused by challenge with virulent PRV |
| --- | --- |
| KKSVRGKGKGQKRKRKKSRYKSWSV [VEGF peptide] | protected the animals from mortality |
| YVRVRRPPKGKHRKFKHTH [PDGF peptide] | protected the animals from mortality |
